Test results: US8258134B2, “Pyridazinone glucokinase activators” (Hoffmann-La Roche Inc., priority 2008, dated 2012)

Molecular target: T1, Recombinant human liver GK1 (GST-GK) (Homo sapiens, UniProt P35557)
T1 construct: made in house; host or cells: E. coli
T1 sequence (P35557 1-466 isoform P35557-2): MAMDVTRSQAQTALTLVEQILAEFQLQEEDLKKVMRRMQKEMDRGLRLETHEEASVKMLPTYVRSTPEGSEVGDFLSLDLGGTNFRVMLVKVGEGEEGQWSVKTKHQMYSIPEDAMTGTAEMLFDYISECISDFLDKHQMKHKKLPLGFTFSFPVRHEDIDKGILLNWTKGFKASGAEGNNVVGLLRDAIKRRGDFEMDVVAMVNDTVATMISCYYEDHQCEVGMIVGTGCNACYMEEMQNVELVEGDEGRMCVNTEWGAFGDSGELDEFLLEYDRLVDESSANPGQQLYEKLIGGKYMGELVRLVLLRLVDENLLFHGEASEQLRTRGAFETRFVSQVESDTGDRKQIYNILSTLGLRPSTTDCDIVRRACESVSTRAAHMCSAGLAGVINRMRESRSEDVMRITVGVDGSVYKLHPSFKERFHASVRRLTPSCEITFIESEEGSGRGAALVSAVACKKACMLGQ
Experiment: Glucokinase in vitro assay (G6PDH-coupled NADH generation, OD340)
Assay type: biochemical
Conditions: 5 mM D-glucose, 30° C., pH 7.1, 10% DMSO
Summary of the method: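 GST-tagged recombinant GK1 expressed in E. coli, run at 30° C, pH 7.1 Hepes with 5 mM D-glucose, 1 mM ATP and 1.8 mM NAD, G6PDH-coupled. Compounds were in 10% DMSO final, with a 10 min pre-incubation before enzyme addition. OD340/min rate measured; SC1.5 is the activator concentration giving a 50% increase in activity.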

| Structure (SMILES) | SC1.5 average (concentration of activator that produced a 50% increase in the activity of GK) [µM] |
| --- | --- |
| O=C(O)c1ccc(NC(=O)[C@@H](CC2CCCC2)n2ncc(Oc3c(F)cccc3F)cc2=O)nc1 [Example 73B, 6-{(R)-3-Cyclopentyl-2-[4-(2,6-difluoro-phenoxy)-6-oxo-6H-pyridazin-1-yl]-propionylamino}-nicotinic acid] | 0.507 |
| Cc1ccccc1Oc1cnn(C(CC2CCCC2)C(=O)Nc2ccc(C(=O)O)cn2)c(=O)c1 (stereo not drawn) [Example 74, 6-[3-Cyclopentyl-2-(6-oxo-4-o-tolyloxy-6H-pyridazin-1-yl)-propionylamino]-nicotinic acid] | 0.067 |
| O=C(O)c1ccc(NC(=O)C(CC2CCCC2)n2ncc(Oc3ccccc3F)cc2=O)nc1 (stereo not drawn) [Example 75, 6-{3-Cyclopentyl-2-[4-(2-fluoro-phenoxy)-6-oxo-6H-pyridazin-1-yl]-propionylamino}-nicotinic acid] | 0.058 |
| O=C(Nc1cnccn1)C(CC1CCCC1)n1ncc(Oc2ccccc2C(F)(F)F)cc1=O (stereo not drawn) [Example 76, 3-Cyclopentyl-2-[6-oxo-4-(2-trifluoromethyl-phenoxy)-6H-pyridazin-1-yl]-N-pyrazin-2-yl-propionamide] | 0.376 |
| CN(c1ccccc1)c1cnn(C(CC2CCCC2)C(=O)Nc2ccn(CC(C)(C)O)n2)c(=O)c1 (stereo not drawn) [Example 77, 3-Cyclopentyl-N-[1-(2-hydroxy-2-methyl-propyl)-1H-pyrazol-3-yl]-2-[4-(methyl-phenyl-amino)-6-oxo-6H-pyridazin-1-yl]-propionamide] | 21.07 |
| CC(C)(O)Cn1ccc(NC(=O)C(CC2CCCC2)n2ncccc2=O)n1 (stereo not drawn) [Example 78, 3-Cyclopentyl-N-[1-(2-hydroxy-2-methyl-propyl)-1H-pyrazol-3-yl]-2-(6-oxo-6H-pyridazin-1-yl)-propionamide] | 14.436 |
| O=C(Nc1nccs1)C(CC1CCCC1)n1ncccc1=O (stereo not drawn) [Example 79, 3-Cyclopentyl-2-(6-oxo-6H-pyridazin-1-yl)-N-thiazol-2-yl-propionamide] | 14.605 |
| COc1cnn(C(CC2CCCC2)C(=O)Nc2nccs2)c(=O)c1 (stereo not drawn) [Example 80, 3-Cyclopentyl-2-(4-methoxy-6-oxo-6H-pyridazin-1-yl)-N-thiazol-2-yl-propionamide] | 3.208 |

Results, then the molecule that gave them:

| SC1.5 average (concentration of activator that produced a 50% increase in the activity of GK) [µM] | Structure (SMILES) |
| --- | --- |
| 0.043 | Cc1ccccc1Oc1cnn([C@@H](CC2CCCC2)C(=O)Nc2ccc(C(=O)O)cn2)c(=O)c1 [Example 74A, 6-[(S)-3-Cyclopentyl-2-(6-oxo-4-o-tolyloxy-6H-pyridazin-1-yl)-propionylamino]-nicotinic acid] |
| 0.245 | Cc1ccccc1Oc1cnn([C@H](CC2CCCC2)C(=O)Nc2ccc(C(=O)O)cn2)c(=O)c1 [Example 74B, 6-[(R)-3-Cyclopentyl-2-(6-oxo-4-o-tolyloxy-6H-pyridazin-1-yl)-propionylamino]-nicotinic acid] |
| 0.033 | O=C(O)c1ccc(NC(=O)[C@H](CC2CCCC2)n2ncc(Oc3ccccc3F)cc2=O)nc1 [Example 75A, 6-{(S)-3-Cyclopentyl-2-[4-(2-fluoro-phenoxy)-6-oxo-6H-pyridazin-1-yl]-propionylamino}-nicotinic acid] |
| 0.796 | O=C(O)c1ccc(NC(=O)[C@@H](CC2CCCC2)n2ncc(Oc3ccccc3F)cc2=O)nc1 [Example 75B, 6-{(R)-3-Cyclopentyl-2-[4-(2-fluoro-phenoxy)-6-oxo-6H-pyridazin-1-yl]-propionylamino}-nicotinic acid] |
